No end group written: not given here.
Legend:
[1] = Absorption and emission spectra of fluoresceins and SDMA conjugates (Example 33); format: physicochemical; settings: PBS buffer
Text: The maximum absorption of fluorescein (Fl) in PBS buffer is at 489 nm and the maximum fluorescence emission is at 515 nm. When the fluorescein molecule is conjugated with an SDMA molecule via a —CH2NH— linker (i.e., to provide SDMA-Fl), its maximum absorption and emission are shifted to 495 nm and 525 nm, respectively. When the fluorescein molecule is substituted by fluorine at the 2′ and 7′ positions (i.e., to provide DFF) there is no any change in the maximum absorption and emission compared to unsubstituted fluorescein. When the fluorescein molecule is substituted by chloride at the 2′ and 7′ positions (i.e., to provide DCF) the maximum absorption and emission are red-shifted to 500 nm and 525 nm, respectively. Also conjugating DFF or DCF to SDMA via a —CH2NH— linker (i.e., to provide SDMA-DFF and SDMA DCF, respectively) results in the maximum absorption and emission being red-shifted. The maximum absorption and emission wavelengths of fluorescein (FL), 2′,7′-difluorofluorescien (DFF), 2′,7′-dichlorofluorescien (DCF), and their conjugates with SDMA via a —CH2NH— linker (i.e., SDMA-Fl (i.e., structure A3), SDMA-DFF, and SDMA-DCF) are listed in the Table provided below. The absorption spectra of DFF, SDMA-DFF, DCF, SDMA-DCF, Fl, and SDMA-FL are depicted in FIG. 25A and the emission spectra of SDMA-DFF, SDMA-DCF, Fl, and SDMA-FL are depicted in FIG. 25B.

anti-T4 antibody = assay: Maximum percentage fluorescence quenching of T2-F, T3-F, T4-F by anti-T4 antibody with and without quencher label (Example 27 table); format: binding
Procedure: In another experiment, tracer T2-F, T3-F, or T4-F was dissolved in DMSO to provide a DMSO solution at a tracer concentration of 1 mM. The DMSO solution was then diluted with phosphate buffered saline (“PBS”) to provide a stock solution of each tracer at a concentration of 10 μM. Monoclonal anti-T4-Mab or anti-T4-Mab conjugated to a quencher (Cy3-Ab, IRdyeQC1-Ab, Cy5-Ab, BHQ1-Ab) were serially diluted in PBS to provide solutions having an Anti-T4-Mab or anti-T4-Mab conjugated to quencher at concentration ranging from 0 to 2 μM. In a 96 well black assay plate containing the serially diluted Anti-T4-Mab or anti-T4-Mab conjugated to quencher (95 μL) was added the tracer T2-F, T3-F, or T4-F solution (5 μL), mixed well, and incubated for 30 min and the fluorescence intensities then recorded at an excitation wavelength of 485 nm and an emission wavelength of 520 nm. The results of maximum percentage fluorescence quenching for different tracers and quencher-modified antibodies are provided in the following Table: […]

[2] = system: Monoclonal anti-CysB antibody (7C2); assay: Fluorescence quenching of canine CysB peptide-Fl/DFF conjugates by anti-CysB Mab or Mab-BHQ10 (Example 51); format: binding, mouse
Procedure: CysB peptide-fluorescein (Fl) or -difluorofluorescein (DFF) conjugates were dissolved in DMSO (0.5 mM) and diluted with Tris Buffer ([…] at pH8.0) to provide a stock solution (100 nM). Monoclonal anti-CysB antibody (7C2, raised against a peptide having the amino acid sequence of SEQ ID NO: 14) (8 mg/ml) was serially diluted in PBS buffer to provide solutions having an Anti-CysB-Mab concentration ranging from 0 to 800 nM in Tris buffer (50 mM at pH 8.0 with 0.5% sarkosyl (sodium lauroyl sarcosinate)). In a 96-well black assay plate containing the serially diluted Anti-CysB-Mab solution (50 μL) was added the peptide-Fl or peptide-DFF solution (50 μL), mixed well, incubated for 30 min and the fluorescence intensities recorded. The results are provided in FIG. 38, 39, 40, and Table 1.

[3] = system: Monoclonal anti-NT-proBNP antibody (ADX-15 Mab); assay: Fluorescence quenching of canine NT-proBNP peptide-Fl/DFF conjugates by anti-NT-proBNP Mab and Ab-BHQ10 (Example 52); format: binding; settings: for fluorescence quenching reached (up to) by anti-NT-proBNP antibody: unmodified antibody, titration 0 to 800 nM; for fluorescence quenching: ratio of 8:1; for Percentage Fluorescence Quenching, DFF Conjugate, Ab-BHQ10 / Percentage Fluorescence Quenching, DFF Conjugate, Ab: NT-proBNP peptide-difluorofluorescein conjugate; for Percentage Fluorescence Quenching, DFF Conjugate, Ab-BHQ10 / Percentage Fluorescence Quenching, F1 Conjugate, Ab-BHQ10: mAb-BHQ10; for Percentage Fluorescence Quenching, DFF Conjugate, Ab-BHQ10 / Percentage Fluorescence Quenching, DFF Conjugate, Ab / Percentage Fluorescence Quenching, F1 Conjugate, Ab-BHQ10: molar ratio of 1:1; for Percentage Fluorescence Quenching, DFF Conjugate, Ab-BHQ10 / Percentage Fluorescence Quenching, DFF Conjugate, Ab / Percentage Fluorescence Quenching, F1 Conjugate, Ab / Percentage Fluorescence Quenching, F1 Conjugate, Ab-BHQ10: No = No Quenching; for Percentage Fluorescence Quenching, F1 Conjugate, Ab / Percentage Fluorescence Quenching, F1 Conjugate, Ab-BHQ10: NT-proBNP peptide-fluorescein conjugate; for Percentage Fluorescence Quenching, F1 Conjugate, Ab: Ab/Conjugate molar ratio of 1:1; for quenching of peptide-Fl or -DFF conjugates upon addition of antibody or antibody-BHQ10: any molar ratio from 1:1 to 8:1
Procedure: NT-proBNP peptide-fluorescein (Fl) or -difluorofluorescein (DFF) conjugates were dissolved in DMSO (0.4 mM) and diluted with PBS to provide a stock solution (100 nM). Monoclonal anti-NT-proBNP antibody (ADX-15 Mab, IDEXX Laboratories Inc. of Westbrook, ME) (6.84 mg/ml) was serially diluted in PBS buffer to provide solutions having an antibody concentration ranging from 0 to 800 nM in PBS. In a 96 well black assay plate containing the serially diluted antibody solution (50 μL) was added the P1-Fl or P1-DFF, or other peptide-Fl or Peptide-DFF solution (50 μL), mixed well, incubated for 30 min and the fluorescence intensities recorded (excitation at 485 nm and emission at 520 nm). The results are provided in FIG. 47, FIG. 48, and Table 2.

anti-CysB Mab = assay: Peptide/full length canine CysB protein dose response in Tris buffer and serum (Example 51); format: binding, mouse; settings: for fluorescence intensity as a function of CysB peptide concentration: peptide 0 to 3200 nM added to mixture of antibody and P6-Fl or P6-DFF, Tris buffer
Procedure: A mixture of CysB P6-Fl or P6-DFF in Tris buffer with 0.1% Tween 20 (200 nM, 25 μL) and anti-Cys-Mab in Tris buffer with 0.1% Tween 20 (400 nM, 25 μL) was incubated at room temperature for 30 min in the wells of a 96 well black assay plate. A series of CysB peptides P6, P7, and P14 standard solutions having peptide concentrations ranging from 0 to 3200 nM (50 μL) were then added to the mixtures of the P6-Fl or P6-DFF and anti-CysB Mab in Tris Buffer. The plate was then incubated for 30 min at room temperature and the fluorescence intensities recorded at an excitation of 485 nm and an emission of 520 nm. The results are shown in FIG. 43, FIG. 44, FIG. 45, and FIG. 46.

anti-T4-Mab = assay: Fluorescence of T3 tracers and anti-T4-Mab in the presence of T4 (Example 20); format: binding; settings: PBS, tracer and antibody equimolar
Procedure: Similar solutions were prepared and the fluorescence measured except that the T3-F was replaced with T3-5-F, T3-E-F and T3-FITC.

O=C(O)c1ccccc1-c1c2ccc(=O)cc-2oc2cc(O)ccc12 [Fl, fluorescein]
Max Absorption [1]: 489 nm
Max Emision [1]: 515 nm
Max Absorption ([1]; listed as FI): 483 nm

O=C(O)c1ccccc1-c1c2ccc(=O)cc-2oc2c(CNC(Cc3cc(I)c(Oc4ccc(O)cc4)c(I)c3)C(=O)O)c(O)ccc12 (stereo not shown) [T2-F]
Percentage of fluorescence quenching, BHQ1-Ab (anti-T4 antibody; anti-T4-Mab conjugated to BHQ1): 11%
Percentage of fluorescence quenching, Cy5-Ab (anti-T4 antibody; anti-T4-Mab conjugated to Cy5): 16%
Percentage of fluorescence quenching, IRdyeQC1-Ab (anti-T4 antibody; anti-T4-Mab conjugated to IRdyeQC1): 8%
Percentage of fluorescence quenching, Ab (anti-T4 antibody; anti-T4-Mab without quencher): 22%

P7-Fl: CysB peptide GHDELAYF conjugated to 5-position of fluorescein (also: conjugated to 5-position of fluorescein, peptide site not given here)
fluorescence quenching relative to P6-Fl ([2]; anti-CysB-Mab): weaker quenching

P1-Fl: NT-proBNP peptide AEQLALEPLHRS conjugated to 5-position of fluorescein (also: conjugated to 5-position of fluorescein, peptide site not given here)
fluorescence quenching reached (up to) by anti-NT-proBNP antibody-BHQ10 [3]: 40%
fluorescence quenching reached (up to) by anti-NT-proBNP antibody [3]: 70%

NT-proBNP P6-Fl: NT-proBNP peptide LEPLHRS conjugated to 5-position of fluorescein (also: conjugated to 5-position of fluorescein, peptide site not given here)
fluorescence quenching [3]: approximately 10%

CNC(=NCCCC(N)C(=O)NCc1c(O)c(Cl)cc2c(-c3ccccc3C(=O)O)c3cc(Cl)c(=O)cc-3oc12)NC (stereo not shown) [SDMA-DCF]
Max Absorption [1]: 510 nm
Max Emision [1]: 535 nm

P6-DFF: CysB peptide GDELAYF conjugated to 5-position of DFF (also: conjugated to 5-position of DFF, peptide site not given here)
Maximum quenching ([2]; anti-CysB-Mab, molar ratio of about 4:1): ~45%
fluorescence quenching [3]: approximately 10%

O=C1OC2(c3cc(Cl)c(O)cc3Oc3cc(O)c(Cl)cc32)c2ccccc21 [DCF, 2′,7′-dichlorofluorescien]
Max Absorption [1]: 500 nm
Max Emision [1]: 525 nm

YQTNKAKHDELAYF [P14]
fluorescence intensity as a function of CysB peptide concentration (anti-CysB Mab): a dose response was observed

GHDELAYF [P7, canine CysB peptide]
Percentage Fluorescence Quenching, DFF Conjugate At 5-Position ([2]; CysB peptide conjugated to 5-position of difluorofluorescein, Ab/Conjugate ratio = 2/1): 5%
Percentage Fluorescence Quenching, F1 Conjugate At 5-Position ([2]; CysB peptide conjugated to 5-position of fluorescein, Ab/Conjugate ratio = 2/1): 5%
fluorescence intensity as a function of CysB peptide concentration (anti-CysB Mab): a dose response was observed

O=C(O)c1ccccc1-c1c2ccc(=O)cc-2oc2c(CNCCNC(Cc3cc(I)c(Oc4ccc(O)c(I)c4)c(I)c3)C(=O)O)c(O)ccc12 (stereo not shown) [T3-E-F, T3-Ethyl-Fluorescein]
fluorescence quenching by anti-T4-Mab (anti-T4-Mab): quenched

AEQLAL [P2]
Percentage Fluorescence Quenching, DFF Conjugate, Ab-BHQ10 [3]: No
Percentage Fluorescence Quenching, DFF Conjugate, Ab [3]: No
Percentage Fluorescence Quenching, F1 Conjugate, Ab [3]: No
Percentage Fluorescence Quenching, F1 Conjugate, Ab-BHQ10 [3]: No
quenching of peptide-Fl or -DFF conjugates upon addition of antibody or antibody-BHQ10 [3]: no quenching

O=C(NC(Cc1cc(I)c(Oc2ccc(O)c(I)c2)c(I)c1)C(=O)O)c1ccc(-c2c3ccc(=O)cc-3oc3cc(O)ccc23)c(C(=O)O)c1 (stereo not shown) [T3-5-F, T3-5-Fluorescein]
fluorescence quenching by anti-T4-Mab (anti-T4-Mab): not quenched

O=C(O)c1cc(NC(=S)NC(Cc2cc(I)c(Oc3ccc(O)c(I)c3)c(I)c2)C(=O)O)ccc1-c1c2ccc(=O)cc-2oc2cc(O)ccc12 (stereo not shown) [T3-FITC]
fluorescence quenching by anti-T4-Mab (anti-T4-Mab): not quenched

P6-Fl: CysB peptide GDELAYF conjugated to 5-position of fluorescein (also: conjugated to 5-position of fluorescein, peptide site not given here)
quenching by anti-CysB Mab-BHQ10 relative to un-modified mAb [2]: slightly higher
fluorescence quenching ([2]; molar ratio of antibody to P6-Fl of about 8:1, unmodified anti-CysB-Mab): ~30%

P1-DFF: NT-proBNP peptide AEQLALEPLHRS conjugated to 5-position of DFF (also: conjugated to 5-position of DFF, peptide site not given here)
fluorescence quenching reached (up to) by anti-NT-proBNP antibody-BHQ10 [3]: approximately 65%
fluorescence quenching reached (up to) by anti-NT-proBNP antibody [3]: approximately 70%

O=C1OC2(c3cc(F)c(O)cc3Oc3cc(O)c(F)cc32)c2ccccc21 [DFF, 2′,7′-difluorofluorescien]
Max Absorption [1]: 489 nm
Max Emision [1]: 515 nm

P5-Fl: CysB peptide GELAYF conjugated to 5-position of fluorescein (also: conjugated to 5-position of fluorescein, peptide site not given here)
quenching of 4′-position conjugate compared with 5-position conjugate ([2]; anti-CysB mAb): higher quenching

EPLHRS [P3]
Percentage Fluorescence Quenching, DFF Conjugate, Ab-BHQ10 [3]: No
Percentage Fluorescence Quenching, DFF Conjugate, Ab [3]: No
Percentage Fluorescence Quenching, F1 Conjugate, Ab [3]: No
Percentage Fluorescence Quenching, F1 Conjugate, Ab-BHQ10 [3]: No
quenching of peptide-Fl or -DFF conjugates upon addition of antibody or antibody-BHQ10 [3]: no quenching

B1: CysB full length protein: canine cystatin-B, SEQ ID NO: 1 (protein, listed as Canis familiaris)
chain: MMCGAPSASQPATADTQAIADQVKAQLEERENKKYTTFKAVTFRSQVVAGTPYFIKVQVDDDEFVHLRVFQSLPHENKPLALSSYQTNKAKHDELAYF
fluorescence intensity as a function of CysB full length protein concentration (anti-CysB Mab; added to mixture of antibody and tracer in the presence of varying concentrations of sarkosyl): a dose response was observed
dose response of CysB full length protein in serum (anti-CysB Mab; antibody or antibody-BHQ10 with P6-Fl or P6-DFF, sarkosyl (1%)): dose response was also observed

Reference: US12345641B2, “Fluorescence quenching immunoassay” (IDEXX Laboratories, Inc., priority 2020, dated 2025)
